Measured values: PubChem BioAssay (NCI)
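Following 48 hours of exposure in 96-well plates, responses at five concentrations were used to interpolate endpoints linearly. TGI marks complete inhibition of growth.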

Experiments:
Test in all cases: DTP human tumour cell line panel, 48 h
COLO 205 colon = system: COLO 205 colon
TK-10 renal = system: TK-10 renal
HOP-92 NSCLC = system: HOP-92 NSCLC
HS 578T breast = system: HS 578T breast
SF-268 CNS = system: SF-268 CNS
HCT-15 colon = system: HCT-15 colon
SK-MEL-28 melanoma = system: SK-MEL-28 melanoma
SK-MEL-5 melanoma = system: SK-MEL-5 melanoma
HCT-116 colon = system: HCT-116 colon
CAKI-1 renal = system: CAKI-1 renal
HT29 colon = system: HT29 colon
M14 melanoma = system: M14 melanoma
SR leukemia = system: SR leukemia
NCI/ADR-RES ovarian = system: NCI/ADR-RES ovarian
NCI-H226 lung = system: NCI-H226 lung
DU-145 prostate = system: DU-145 prostate
NCI-H23 lung = system: NCI-H23 lung
OVCAR-8 ovarian = system: OVCAR-8 ovarian
NCI-H522 lung = system: NCI-H522 lung
SNB-19 CNS = system: SNB-19 CNS
MALME-3M melanoma = system: MALME-3M melanoma
SF-295 CNS = system: SF-295 CNS
OVCAR-3 ovarian = system: OVCAR-3 ovarian
RXF 393 renal = system: RXF 393 renal
UACC-257 melanoma = system: UACC-257 melanoma
NCI-H460 lung = system: NCI-H460 lung
BT-549 breast = system: BT-549 breast
SW-620 colon = system: SW-620 colon
ACHN renal = system: ACHN renal
HCC-2998 colon = system: HCC-2998 colon
A549 NSCLC = system: A549 NSCLC
RPMI-8226 leukemia = system: RPMI-8226 leukemia
A498 renal = system: A498 renal
SK-OV-3 ovarian = system: SK-OV-3 ovarian
MOLT-4 leukemia = system: MOLT-4 leukemia
IGROV1 ovarian = system: IGROV1 ovarian
MDA-N = system: MDA-N
MCF7 breast = system: MCF7 breast
K-562 leukemia = system: K-562 leukemia
T-47D breast = system: T-47D breast
MDA-MB-435 = system: MDA-MB-435
HOP-62 NSCLC = system: HOP-62 NSCLC
SN12C renal = system: SN12C renal
KM12 colon = system: KM12 colon
SNB-75 CNS = system: SNB-75 CNS
MDA-MB-231 breast = system: MDA-MB-231 breast
OVCAR-5 ovarian = system: OVCAR-5 ovarian
786-0 renal = system: 786-0 renal
UO-31 renal = system: UO-31 renal
PC-3 prostate = system: PC-3 prostate
SK-MEL-2 melanoma = system: SK-MEL-2 melanoma
U251 CNS = system: U251 CNS
UACC-62 melanoma = system: UACC-62 melanoma
EKVX NSCLC = system: EKVX NSCLC
OVCAR-4 ovarian = system: OVCAR-4 ovarian
LOX IMVI melanoma = system: LOX IMVI melanoma
SF-539 CNS = system: SF-539 CNS
HL-60(TB) leukemia = system: HL-60(TB) leukemia
CCRF-CEM leukemia = system: CCRF-CEM leukemia

## ON(CCc1ccccn1)Cc1ccccc1
COLO 205 colon
  TGI: > 100 µM
TK-10 renal
  TGI: > 100 µM
HOP-92 NSCLC
  TGI: > 100 µM
HS 578T breast
  TGI: > 100 µM
SF-268 CNS
  TGI: > 100 µM
HCT-15 colon
  TGI: > 100 µM
SK-MEL-28 melanoma
  TGI: > 100 µM
SK-MEL-5 melanoma
  TGI: > 100 µM
HCT-116 colon
  TGI: > 100 µM
CAKI-1 renal
  TGI: > 100 µM
HT29 colon
  TGI: > 100 µM
M14 melanoma
  TGI: > 100 µM
SR leukemia
  TGI: > 100 µM
NCI/ADR-RES ovarian
  TGI: > 100 µM
NCI-H226 lung
  TGI: > 100 µM
DU-145 prostate
  TGI: > 100 µM
NCI-H23 lung
  TGI: > 100 µM
OVCAR-8 ovarian
  TGI: > 100 µM
NCI-H522 lung
  TGI: > 100 µM
SNB-19 CNS
  TGI: > 100 µM
MALME-3M melanoma
  TGI: > 100 µM
SF-295 CNS
  TGI: > 100 µM
OVCAR-3 ovarian
  TGI: > 100 µM
RXF 393 renal
  TGI: > 100 µM
UACC-257 melanoma
  TGI: > 100 µM
NCI-H460 lung
  TGI: > 100 µM
BT-549 breast
  TGI: > 100 µM
SW-620 colon
  TGI: > 100 µM
ACHN renal
  TGI: > 100 µM
HCC-2998 colon
  TGI: > 100 µM
A549 NSCLC
  TGI: > 100 µM
RPMI-8226 leukemia
  TGI: > 100 µM
A498 renal
  TGI: > 100 µM
SK-OV-3 ovarian
  TGI: > 100 µM
MOLT-4 leukemia
  TGI: > 100 µM
IGROV1 ovarian
  TGI: > 100 µM
MDA-N
  TGI: > 100 µM
MCF7 breast
  TGI: > 100 µM
K-562 leukemia
  TGI: > 100 µM
T-47D breast
  TGI: > 100 µM
MDA-MB-435
  TGI: > 100 µM
HOP-62 NSCLC
  TGI: > 100 µM
SN12C renal
  TGI: > 100 µM
KM12 colon
  TGI: > 100 µM
SNB-75 CNS
  TGI: > 100 µM
MDA-MB-231 breast
  TGI: > 100 µM
OVCAR-5 ovarian
  TGI: > 100 µM
786-0 renal
  TGI: > 100 µM
UO-31 renal
  TGI: > 100 µM
PC-3 prostate
  TGI: > 100 µM
SK-MEL-2 melanoma
  TGI: > 100 µM
U251 CNS
  TGI: > 100 µM
UACC-62 melanoma
  TGI: > 100 µM
EKVX NSCLC
  TGI: > 100 µM
OVCAR-4 ovarian
  TGI: > 100 µM
LOX IMVI melanoma
  TGI: > 100 µM
SF-539 CNS
  TGI: > 100 µM

## COC(=O)[C@]12CSC[C@H]1C[C@H](c1ccc(N(C)C)cc1)N2
COLO 205 colon
  TGI: > 100 µM
TK-10 renal
  TGI: > 100 µM
HOP-92 NSCLC
  TGI: > 100 µM
HS 578T breast
  TGI: > 100 µM
SF-268 CNS
  TGI: > 100 µM
HCT-15 colon
  TGI: > 100 µM
SK-MEL-28 melanoma
  TGI: > 100 µM
SK-MEL-5 melanoma
  TGI: > 100 µM
HCT-116 colon
  TGI: > 100 µM
CAKI-1 renal
  TGI: > 100 µM
M14 melanoma
  TGI: > 100 µM
SR leukemia
  TGI: > 100 µM
NCI/ADR-RES ovarian
  TGI: > 100 µM
NCI-H226 lung
  TGI: > 100 µM
DU-145 prostate
  TGI: > 100 µM
NCI-H23 lung
  TGI: > 100 µM
OVCAR-8 ovarian
  TGI: > 100 µM
SNB-19 CNS
  TGI: > 100 µM
HL-60(TB) leukemia
  TGI: > 100 µM
CCRF-CEM leukemia
  TGI: > 100 µM
MALME-3M melanoma
  TGI: > 100 µM
SF-295 CNS
  TGI: > 100 µM
OVCAR-3 ovarian
  TGI: > 100 µM
RXF 393 renal
  TGI: > 100 µM
UACC-257 melanoma
  TGI: > 100 µM
NCI-H460 lung
  TGI: > 100 µM
BT-549 breast
  TGI: > 100 µM
SW-620 colon
  TGI: > 100 µM
ACHN renal
  TGI: > 100 µM
HCC-2998 colon
  TGI: > 100 µM
A549 NSCLC
  TGI: > 100 µM
RPMI-8226 leukemia
  TGI: > 31.6 µM
A498 renal
  TGI: > 100 µM
SK-OV-3 ovarian
  TGI: > 100 µM
MOLT-4 leukemia
  TGI: > 100 µM
IGROV1 ovarian
  TGI: > 100 µM
MDA-N
  TGI: > 100 µM
MCF7 breast
  TGI: > 100 µM
K-562 leukemia
  TGI: > 100 µM
T-47D breast
  TGI: > 100 µM
MDA-MB-435
  TGI: > 100 µM
HOP-62 NSCLC
  TGI: > 100 µM
SN12C renal
  TGI: > 100 µM
KM12 colon
  TGI: > 100 µM
SNB-75 CNS
  TGI: > 100 µM
MDA-MB-231 breast
  TGI: > 100 µM
OVCAR-5 ovarian
  TGI: > 100 µM
786-0 renal
  TGI: > 100 µM
UO-31 renal
  TGI: > 100 µM
PC-3 prostate
  TGI: > 100 µM
SK-MEL-2 melanoma
  TGI: > 100 µM
U251 CNS
  TGI: > 100 µM
UACC-62 melanoma
  TGI: > 100 µM
EKVX NSCLC
  TGI: > 100 µM
OVCAR-4 ovarian
  TGI: > 100 µM
LOX IMVI melanoma
  TGI: > 100 µM
SF-539 CNS
  TGI: > 100 µM

## CCOC(=O)c1c(-c2ccccc2)[nH]c2ccc(Cl)cc2c1=O
COLO 205 colon
  TGI: > 100 µM
TK-10 renal
  TGI: > 100 µM
HOP-92 NSCLC
  TGI: 73.6 µM
HS 578T breast
  TGI: > 100 µM
SF-268 CNS
  TGI: > 100 µM
HCT-15 colon
  TGI: > 100 µM
SK-MEL-28 melanoma
  TGI: > 100 µM
SK-MEL-5 melanoma
  TGI: > 100 µM
HCT-116 colon
  TGI: > 100 µM
CAKI-1 renal
  TGI: > 100 µM
HT29 colon
  TGI: > 100 µM
M14 melanoma
  TGI: > 100 µM
SR leukemia
  TGI: > 100 µM
NCI/ADR-RES ovarian
  TGI: > 100 µM
NCI-H226 lung
  TGI: > 100 µM
DU-145 prostate
  TGI: > 100 µM
NCI-H23 lung
  TGI: > 100 µM
OVCAR-8 ovarian
  TGI: > 100 µM
NCI-H522 lung
  TGI: 60.8 µM
SNB-19 CNS
  TGI: > 100 µM
HL-60(TB) leukemia
  TGI: > 100 µM
CCRF-CEM leukemia
  TGI: > 100 µM
MALME-3M melanoma
  TGI: > 100 µM
SF-295 CNS
  TGI: > 100 µM
OVCAR-3 ovarian
  TGI: 38.9 µM
RXF 393 renal
  TGI: > 100 µM
UACC-257 melanoma
  TGI: > 100 µM
NCI-H460 lung
  TGI: > 100 µM
BT-549 breast
  TGI: > 100 µM
SW-620 colon
  TGI: > 100 µM
ACHN renal
  TGI: 93.2 µM
HCC-2998 colon
  TGI: > 100 µM
A549 NSCLC
  TGI: > 100 µM
RPMI-8226 leukemia
  TGI: > 100 µM
SK-OV-3 ovarian
  TGI: > 100 µM
MOLT-4 leukemia
  TGI: > 100 µM
IGROV1 ovarian
  TGI: > 100 µM
MDA-N
  TGI: > 100 µM
MCF7 breast
  TGI: > 100 µM
K-562 leukemia
  TGI: > 100 µM
T-47D breast
  TGI: 62 µM
MDA-MB-435
  TGI: > 100 µM
HOP-62 NSCLC
  TGI: > 100 µM
SN12C renal
  TGI: > 100 µM
KM12 colon
  TGI: > 100 µM
SNB-75 CNS
  TGI: > 100 µM
MDA-MB-231 breast
  TGI: > 100 µM
OVCAR-5 ovarian
  TGI: > 100 µM
786-0 renal
  TGI: > 100 µM
UO-31 renal
  TGI: 70.8 µM
PC-3 prostate
  TGI: > 100 µM
SK-MEL-2 melanoma
  TGI: > 100 µM
U251 CNS
  TGI: > 100 µM
UACC-62 melanoma
  TGI: > 100 µM
EKVX NSCLC
  TGI: > 100 µM
OVCAR-4 ovarian
  TGI: 44.8 µM
LOX IMVI melanoma
  TGI: > 100 µM
SF-539 CNS
  TGI: > 100 µM
